How the values were obtained:
[1] = biological target: T1, TSH receptor (TSHR) (Homo sapiens, UniProt P16473); assay: cAMP production in HEK293 cells stably expressing TSHR (agonist dose-response); inactive in HEK-LHR and HEK-FSHR cells; type: cell-based
[2] = biological target: T1, TSH receptor (TSHR); assay: cAMP production in HEK293 cells stably expressing TSHR (agonist dose-response); type: cell-based

T1 sequence (P16473 21-764): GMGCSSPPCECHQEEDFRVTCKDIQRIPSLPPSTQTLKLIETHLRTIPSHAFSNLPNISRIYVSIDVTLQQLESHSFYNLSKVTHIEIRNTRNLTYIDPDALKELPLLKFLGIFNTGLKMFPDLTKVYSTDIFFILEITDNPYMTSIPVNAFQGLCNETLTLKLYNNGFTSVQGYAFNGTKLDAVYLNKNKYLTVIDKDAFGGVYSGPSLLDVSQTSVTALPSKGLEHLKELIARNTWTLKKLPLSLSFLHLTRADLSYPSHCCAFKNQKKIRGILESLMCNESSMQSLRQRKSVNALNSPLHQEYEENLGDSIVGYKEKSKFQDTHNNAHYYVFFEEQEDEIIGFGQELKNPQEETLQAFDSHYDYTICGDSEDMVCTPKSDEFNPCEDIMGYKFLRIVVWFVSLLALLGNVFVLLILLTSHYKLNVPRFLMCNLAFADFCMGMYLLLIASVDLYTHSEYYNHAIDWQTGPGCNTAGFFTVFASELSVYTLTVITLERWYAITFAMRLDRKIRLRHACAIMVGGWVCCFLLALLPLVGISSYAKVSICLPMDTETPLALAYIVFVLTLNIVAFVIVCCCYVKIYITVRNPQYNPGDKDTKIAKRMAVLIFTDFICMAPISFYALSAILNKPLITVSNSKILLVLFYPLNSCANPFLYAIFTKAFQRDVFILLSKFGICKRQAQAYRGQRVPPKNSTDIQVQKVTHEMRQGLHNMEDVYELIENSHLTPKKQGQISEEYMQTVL

COc1ccc([C@@H]2Nc3cccc(O)c3C(=O)N2Cc2ccccc2)cc1COc1ccc(NC(C)=O)cc1 [E1] gave an EC50 [1] of 217 nM.

In the case of COc1ccc(C2Nc3cccc(O)c3C(=O)N2Cc2ccccc2)cc1COc1ccc(NC(C)=O)cc1 (racemic) [C2], the EC50 [2] is reported as 46 nM.

Molecule COc1ccc([C@H]2Nc3cccc(O)c3C(=O)N2Cc2ccccc2)cc1COc1ccc(NC(C)=O)cc1 [E2] has an EC50 [1] of 18 nM.
